Patent publication US9815878B2, “Use of PEDF-derived polypeptides for preventing and/or ameliorating skin aging” (MacKay Memorial Hospital, priority 2012, dated 2017)

Key:
dermal fibroblasts = test: Dermal fibroblast proliferation in vivo, BrdU/vimentin staining of skin sections; design: species or system mice; details: normal skin, 16 hours after peptide/MN treatment
Description: For animal study, BrdU was reconstituted in DMSO as stock (80 mM). 10 μl of BrdU stock mixed with 90 μl of PBS was intraperitoneally injected into mouse at 16 hours prior to euthanasia. Formalin-fixed, paraffin-embedded skin specimens were deparaffinized in xylene and rehydrated in a graded series of ethanol. The specimens were then exposed to 1 N HCl at room temperature for 1 hour for subsequent immunofluorescence study.
BrdU-labeled DNA was detected by polyclonal anti-BrdU antibody and rhodamine-conjugated donkey anti-rabbit IgG. Nuclei were counterstained with Hoechst 33258 (blue).
To investigate whether the transdermal delivery of the present PEDF peptides promotes the proliferation of dermal fibroblast in vivo, mice were intraperitoneally injected with BrdU and euthanized at 16 hours after the PEDF peptide/MN treatment or the vehicle/MN treatment. Skin sections were stained for vimentin (green) and BrdU (red). The level of BrdU- and vimentin-double positive cells was expressed as the percentage of BrdU- and vimentin-double positive cells per total vimentin-positive cells (the BrdU/Vimentin Labeling Index), and the results are summarized in Table 4.

[1] = test system: Human dermal fibroblasts (WS-1 cells); test: Cell viability of WS-1 cells pretreated with peptide; assay type: cell-based; details: 100 nM for 24 hours, data not shown
Excerpt: (§1) According to our preliminary study, cell viability was greater than 95% relative to that of the control after exposure to 15 mJ/cm^2 UVB irradiation (data not shown). […] Therefore, the exposure dose was set at 15 mJ/cm^2 in the following experiment.

[2] = test system: primary mouse dermal fibroblasts; test: Cell viability of primary mouse dermal fibroblasts pretreated with peptide; assay type: cell-based; details: 100 nM for 24 hours, data not shown
Excerpt: as §1

[3] = test system: Human dermal fibroblasts (WS-1 cells); test: Cell migration of WS-1 cells, transwell assay; assay type: cell-based; details: 100 nM for 24 hours, data not shown
Excerpt: as §1

[4] = test system: primary mouse dermal fibroblasts; test: Cell migration of primary mouse dermal fibroblasts, transwell assay; assay type: cell-based; details: 100 nM for 24 hours, data not shown

With “Ac-SLGAEQRTESIIHRALYYDLISSPDIHGT-NH2 [29-mer]” the “BrdU/Vimentin Labeling Index (%)” value (dermal fibroblasts) was 16.9 ± 1.9 %, the cell viability [1] was “did not cause any significant change in cell viability” and the cell viability [2] was “did not cause any significant change in cell viability”. The cell migration [3] was “did not cause any significant change in cell migration” and the cell migration [4] was “did not cause any significant change in cell migration”.

With “SLGAEQRTESIIHRALYYDL [20-mer, synthetic peptide corresponding to residues 93-112 of human PEDF]” the “BrdU/Vimentin Labeling Index (%)” value (dermal fibroblasts) was 17.3 ± 3.2 %.
